Here are results for 2 molecules from patent US20110306035A1, “Methods and Compositions for Detection of a Pathogen, Disease, Medical Condition, or Biomarker Thereof” (priority 2008, published 2011).

Assay [1] addresses Echovirus 3C recombinant protease (Echovirus 30, UniProt Q9WN78). The experiment in a line: Echovirus 3C recombinant protease activity with inhibitors or inhibitor cocktails (Camb2). The assay is classed as biochemical. On the procedure: Phosphoramidon is a strong inhibitor of many bacterial Metalloendoproteinases, thermolysin, and elastase, but a weak inhibitor of collagenase. […] Phosphoramidon was tested using the Echovirus 3C recombinant and pneumococcus (types 6B and 23F) spiking systems.
(§1) The experiment shown in FIG. 22A was performed in the presence of Echo recombinant protease (50 nM) or in the presence of two different strains of pneumococcus 6B and 23F (lysate 1 μl). The inhibitory effect was measured in the presence/absent of Phosphoramidon (20 uM).
The experiment shown in FIG. 22B was performed in the presence of Echo recombinant protease (1:18), in the presence of meningococcus (lysate 3 ul) or in the presence of blood (10 ul).
Enterovirus 3C protease (Echo), WBC lysate (corresponding to 2×10^3 cells per test), Pneomococc lysate (corresponding to 1×10^6 bacteria per test) and Meningococc lysate (corresponding to 1×10^8 bacteria per test) (5 ul each) were spiked into artificial-CSF (45 ul), followed by the addition of the indicated inhibitor cocktails (5 ul each): I8, I9a=I8+Phosphoramidon (90 μM), I9b=I8+2-6-pyridinedicarboxylic acid (2.5 mM) and I10=I8+Phosphoramidon+2-6-pyridinedicarboxylic acid. The samples with the indicated inhibitor cocktails were incubated at RT for 2.5 min followed by the addition of 50 ul 2× reaction buffer containing the substrate camb2 (final concentration 2 μM). […]

A further assay has as its system meningococcus. The experiment in a line: Meningococcus lysate spiking system (Camb2 cleavage). The assay is classed as biochemical, Neisseria meningitides. The note with it: 2,6-pyridinedicarboxylic acid 2.5 mM; lysate 3 ul. The source says: (§2) There have been no reports of co-infection of viral and bacterial meningitis. Thus, a test for viral meningitis infection implies a negative result for bacterial meningitis. However, CSF samples infected with bacterial meningitis may have background non-specific activity that leads to false positive results in tests for enterovirus, thereby confusing the results. Background non specific activity in CSF samples could be related to bacterial proteases that can cleave the substrate, leading to a positive signal. The most frequent bacterial meningitis found in CSF include: Streptococcus pneumonia, Neisseria meningitides (meningococc), Haemophilus influenza and Klebsiella pneumonia. Accordingly, Pneumococcus (Streptococcus pneumonia, two different strains 6B and 23F) and meningococcus (Neisseria meningitides) were spiked to simulate the background non specific activity observed in CSF samples and to identify inhibitors to reduce it. A total of more than 40 inhibitors from different groups of inhibitors were tested.
The experiment shown in FIG. 22B was performed in the presence of Echo recombinant protease (1:18), in the presence of meningococcus (lysate 3 ul) or in the presence of blood (10 ul). […]

Another assay deals with blood. The conditions noted are these: 2,6-pyridinedicarboxylic acid 2.5 mM; blood 10 ul.
A further assay relates to pneumococcus 6B. The experiment in a line: Pneumococcus 6B lysate spiking system (Camb2 cleavage). It is filed as biochemical, Streptococcus pneumonia.
From the text: as §2, §1

A further assay relates to pneumococcus 23F. The experiment in a line: Pneumococcus 23F lysate spiking system (Camb2 cleavage). The assay is classed as biochemical, Streptococcus pneumonia.
From the text: as §2, §1

The next assay concerns Enterovirus 3C protease. Briefly: Enterovirus assay in clinical CSF samples (vs RT-PCR). It is filed as biochemical. The note with it: bacterial samples 23-25; new assay conditions.
[2] abbreviates: Phosphoramidon 20 uM, lysate 1 μl.
Where [3] appears, read: at least three independent experiments.

Echovirus 3C recombinant protease, sequence (Q9WN78 1550-1732): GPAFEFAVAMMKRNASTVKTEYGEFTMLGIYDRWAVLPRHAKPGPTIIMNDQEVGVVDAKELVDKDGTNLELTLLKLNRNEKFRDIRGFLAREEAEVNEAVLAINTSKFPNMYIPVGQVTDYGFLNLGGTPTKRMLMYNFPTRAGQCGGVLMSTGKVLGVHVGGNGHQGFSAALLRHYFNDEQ
Procedure for Enterovirus 3C protease: CSF samples obtained from two clinical sites, were tested for presence of enterovirus according to the method of the invention but before the assay conditions were optimized. The samples were also tested with a combination of RT-PCR and other clinical parameters. […] Samples were considered hemolytic if red blood cell (RBC) count was above 100/ul (for the one set) or if the sample's color was reddish (for the other set, RBC count not provided).
Samples whose reaction rate exceeded the cutoff value were considered positive, and those below this value were considered negative.
Each measurement was performed by using 50 uL of CSF sample. 5 ul of inhibitor cocktail (I8) was added to the samples and incubated for 2.5 min. The reaction was initiated by the addition of 50 uL 2× reaction buffer (“2× RB”, 50 mM HEPES pH7.5, 1.8M Na2SO4, 300 mM NaCl, 10% Glycerol, 10 mM EDTA and 10 mM EGTA each) containing the substrate camb2 (final concentration 2 uM).
Thaw samples at room temperature for 30 min in a biological hood. • 2. Prepare assay layout according to the number of samples to be run in the BMG fluorimeter and the well composition shown in Table 54
Prepare sufficient amount of inhibitor cocktail I10 (150 ul for 24 wells). • 4. […] Add Echo protease to p.c. (positive control) wells. • 6. […] Add inhibitor cocktail to all wells. • 8. Add 50 ul 2× RB+substrate to all the wells. • 9. […]

The term inhibition denotes the relative decrease from the control value, in per cent. As to `O=C(O)c1cccc(C(=O)O)n1` [2,6-pyridinedicarboxylic acid], in assay [1], the inhibition at 2500 µM is 4.5%. Also, the “inhibition of meningococcus activity” value in the assay on meningococcus is given as 81%. The “inhibition of blood activity” value in the assay with blood is 0%.
For the molecule `CC(C)C[C@H](NP(=O)(O)O[C@@H]1O[C@@H](C)[C@H](O)[C@@H](O)[C@H]1O)C(=O)N[C@@H](Cc1c[nH]c2ccccc12)C(=O)O` [Phosphoramidon], the inhibition at 20 µM in assay [1] (Phosphoramidon 20 uM, Echo recombinant protease 50 nM) was found to be 7%. Further, the “inhibition of pneumococcus activity” value in the assay with pneumococcus 6B (setting [2]) is 91%; in the assay on pneumococcus 6B (setting [3]), approximately 90%; with pneumococcus 23F (setting [2]), 80%; in the assay on pneumococcus 23F (setting [3]), approximately 90%. In addition, the “effect on unspecific background activity of bacterial CSF samples” value with Enterovirus 3C protease is reported as “could not abolish”.
